Reference: US20190365927A1, “COMPOSITION FOR PHOTODYNAMIC THERAPY USING GENE EXPRESSING FLUORESCENT PROTEIN AND PHOTOSENSITIZER, AND PHOTODYNAMIC THERAPY METHOD USING SAME” (priority 2017, published 2019)

What was measured:
RFP+ and RFP− 4T1 cells [1] = assay: In vitro PDT with tin ethyl etiopurpurin and yellow light over irradiation time, LDH and MTT analysis; assay type: cell-based, mouse; conditions: 1 μM, yellow laser light, in 2 seconds after light irradiation, FIG. 11, 12
Description: The yellow light was irradiated over time, and then photo inducing death of RFP+ and RFP− cells was measured by MTT analysis under the presence of tin ethyl etiopurpurin. The specific experimental procedure is as follows.
Specifically, tin ethyl etiopurpurin (Miravant Medical Technology Inc, USA) was diluted with RPMI-1640 medium containing 10% FBS to produce 1 μM concentration of tin ethyl etiopurpurin. Further, the RFP− or RFP+ 4T1 cells selected from the above 1-3 were pre-incubated in a 24-well plate at a density of 5×10^4 cells per well. The pre-cultured cells were then incubated with tin ethyl etiopurpurin for 4 h. After 4 hours, the cells were washed three times with PBS buffer. Then, the yellow laser light (570 nm; radiation dose rate=2 J/cm^2) was irradiated thereto for 0, 5 and 10 seconds. LDH analysis was then performed using the LDH Cytotoxicity Assay kit (Cayman Chemical Company, USA) according to the manufacturer's procedure. […] The absorbance was measured at 490 nm using a plate reader.
Further, the RFP− or RFP+ 4T1 cells selected from the 1-3 using the same method as described above were subjected to the yellow laser light (570 nm; radiation dose rate=2J/cm^2) for 0, 1, 2, 5, 7, or 10 secs. […] The absorbance of the reaction solution was measured at 570 nm. Cell viability was calculated by the following equation: […]

[2] = test system: GFP+ 4T1 cells, RFP+ 4T1 cells and control 4T1 cells; assay: In vitro PDT of GFP+ and RFP+ cells with photosensitizer and red, blue or yellow light, MTT analysis; assay type: cell-based, mouse; conditions: FIG. 14; for cytotoxicity in control, RFP+ and GFP+ cells: 1 μM photosensitizer
Description: The cytotoxicity of RFP+ or GFP+ cells was measured by MTT analysis in the presence of Ce6 (Chlorine (e6)), rose bengal or tin ethyl etiopurpurin as photosensitizer after red light, blue light or yellow light irradiation. The specific experimental procedure is as follows.
Specifically, Ce6 (santacruz, sc-263067), rose bengal (Sigma Aldrich, 330000-5G) or tin ethyl etiopurpurin as a photosensitizer was diluted with RPMI-1640 medium containing 10% FBS. Thus, 1 μM concentration of Ce6 (Chlorine (e6)), rose bengal or tin ethyl etiopurpurin was prepared. Further, GFP+ 4T1 cells selected in the 1-4 and RFP+ 4T1 cells selected in the 1-3 were pre-cultured at a density of 2×10^4 cells/well in 96-well, black, and clear bottom plates. The pre-cultured cells were then incubated with Ce6, rose bengal or tin ethyl etiopurpurin for 4 h. 4T1 cells without RFP or GFP introduced thereto were used as controls. After 4 hours, the cells were washed three times with PBS buffer. Then, red laser light (650 nm; radiation dose rate=2 J/cm^2) or blue laser light (488 nm; radiation dose rate=2 J/cm^2) or yellow laser light (570 nm, radiation dose rate=2 J/cm^2) was irradiated thereto for 5 seconds. After the irradiation, the fresh culture medium was added to the wells. Then, the cells were cultured again for 24 hours. MTT analysis was then performed.

RFP+ and RFP− 4T1 cells [3] = assay: In vitro PDT with varying tin ethyl etiopurpurin concentration, MTT analysis; assay type: cell-based, mouse; conditions: 0, 0.5, 1 and 2 μM, yellow laser light 5 seconds, FIG. 13
Description: After irradiation with yellow light, the photo inducing death of RFP+ and RFP− cells was measured by MTT analysis under the conditions of varying tin ethyl etiopurpurin concentrations. The specific experimental procedure is as follows.
Specifically, tin ethyl etiopurpurin was produced at 0, 0.5, 1 and 2 μM concentrations in the same method as described above. Then, the cells were cultured for 4 hours with RFP− or RFP+ 4T1 cells selected from the 1-3. MTT analysis was performed after irradiation of yellow laser light (570 nm; radiation dose rate=2 J/cm^2) thereto for 5 seconds.

[4] = test system: GFP+ 4T1 cells and RFP+ 4T1 cells; assay: Experiment using artificial skin, MTT assay; assay type: cell-based, mouse; conditions: presence as well as absence of artificial skin (1 mm), 1 μM, yellow laser light, FIG. 17
Description: Actual skin condition was applied. photosensitizer was applied to GFP+ cell and RFP+ cell which in turn was irradiated with light. Then, cell death was measured by MTT assay. The specific experimental procedure is as follows.
Specifically, rose bengal and tin ethyl etiopurpurin at 1 μM concentration were produced in the same method as described in the 2-4. Then, the tin ethyl etiopurpurin was applied to RFP+ 4T1 cells selected from the 1-3. The rose bengal was applied to GFP+ 4T1 cells selected from 1-4. Then, the cells were cultured for 4 hours and washed three times with PBS buffer. Next, as shown in the schematic diagram of FIG. 16, an artificial skin tissue (AST, thickness 1 mm) (Geistlich Mucograft, Geistlich Pharma AG) was placed between the light source and the cell. Thus, the actual skin condition was established. Then, blue laser light (473 nm; radiation dose rate=2 J/cm^2) was applied to GFP+ cells for 5 seconds. Yellow laser light (580 nm; radiation dose rate=2 J/cm^2) were irradiated to RFP+ cells for 5 seconds. In 2 hours of the irradiation, the cells were washed twice with PBS buffer. MTT analysis was carried out in the same method as described in the Experimental Example 2-2. […]

[5] = test system: GFP+ A549, RFP+ A549 and YFP+ A549 cells; assay: In vitro PDT of GFP+, RFP+ and YFP+ cells with photosensitizer, MTT analysis; assay type: cell-based, human; conditions: 1 μM, yellow laser light (570 nm), FIG. 21, 22
Description: Photo inducing death of GFP+, RFP+, and YFP+ cells via the photosensitizer was measured by MTT analysis. The specific experimental procedure is as follows.
To investigate photo inducing death of GFP+ cells, RFP+ cells, and YFP+ cells via the photosensitizer, rose bengal, hematoporphyrin (Sigma-aldrich #5518) or 5-ALA (5-Aminolevulinic acid hydrochloric, Sigma-aldrich # A3785) was diluted with RPMI medium containing 10% FBS. 1 μM concentration of rose bengal, hematoporphyrin or 5-ALA was prepared. Further, GFP+ A549 cells, RFP+ A549 cells and YFP+ A549 cells selected from the 1-4 were pre-incubated at a density of 5×10^3 cells per well on 96-well, black, and clear bottom plates. A549 cells with pcDNA 3.1 vector injected thereto were cultured as control. Then, each of the photosensitizers as produced was applied or not applied to the preincubated cells in the preincubated cells which in turn were cultured for 4 hours. After 4 hours, the cells were washed three times with PBS buffer. Irradiation or non-irradiation of blue laser light (488 nm; radiation dose rate=2 J/cm^2) or yellow laser light (570 nm; radiation dose rate=2 J/cm^2) thereto was carried out for 5 seconds. After irradiation or non-irradiation, a fresh culture medium was added to the wells. The cells were cultured again for 24 hours. MTT analysis was then performed.

eGFP+ and eGFP− cells = assay: Cytotoxicity with Ce6 and 650-nm red laser light, eGFP+ versus eGFP− cells; assay type: cell-based; conditions: FIG. 5

CCOC(=O)C1=Cc2c3nc(cc4nc(cc5[n-]c(cc6[n-]c2c(C)c6CC)c(C)c5CC)C(C)=C4CC)[C@@H](C)[C@]13CC.[Cl-].[Cl-].[Sn] (racemic) [tin ethyl etiopurpurin]
RFP+ cell death compared to RFP− cell, by irradiation duration (RFP+ and RFP− 4T1 cells [1]): RFP+ cell death increased considerably | cytotoxicity in control, RFP+ and GFP+ cells ([2]; yellow laser light): cytotoxicity was seen only in RFP+ cells | degree of cytotoxicity in RFP+ cells versus GFP+ cells treated with rose bengal and blue laser light ([2]; 1 μM, yellow laser light): the degree of cytotoxicity was higher | RFP+ cell death by treatment concentration (RFP+ and RFP− 4T1 cells [3]): increased remarkably | cell death level of RFP+ cells versus GFP+ cells treated with rose bengal and blue laser light [4]: the cell death level was higher

Cl.NCC(=O)CCC(=O)O [5-ALA, 5-Aminolevulinic acid hydrochloride]
cell death effect in YFP+ cell and RFP+ cell [5]: significant cell death effect | cell death effect of RFP+ cell [5]: remarkable cell death effect

chlorine e6 [Ce6]
cytotoxicity in control, RFP+ and GFP+ cells ([2]; red laser light (650 nm)): control, RFP+, and GFP+ cells showed cytotoxicity | cytotoxicity for eGFP+ versus eGFP− cells (eGFP+ and eGFP− cells): not different from each other
